Calls of active or inactive are those of the source. The rule behind the calls is not given here. *1 amine or outer side, *2 acyl side, *3 side chain or, on linkers, in order; H or OH if unused. Where a SMILES comes first, the peptide text is derived from it. [ ]: non-standard residue; d: D form. X1 = Cc1oc([C@H](Cc2ccccc2)N[*:1])nc1C(=O)[*:2]; X3 = CC[C@H](C)[C@H](N[*:1])c1nc(C(=O)[*:2])co1; X2 = Cc1oc([C@H](C)N[*:1])nc1C(=O)[*:2]
Tests used:
[1] = Metal chelating activity assessed as Fe3+ complex formation measured after 45 mins by CAS assay; format: functional
[2] = system: NCI-H460; assay: Cytotoxicity against human NCI-H460 cells measured after 72 hrs by MTT assay; format: functional, cell-based; details: NCI-H460, 72 h
[3] = system: MCF7; assay: Cytotoxicity against human MCF7 cells measured after 72 hrs by MTT assay; format: functional, cell-based; details: MCF7, 72 h
[4] = Metal chelating activity assessed as Fe3+ complex formation at 89 uM measured after 45 mins by CAS assay; format: functional

IC50 [1] [µM]	SMILES	IC50 [2] [µM]	IC50 [3] [µM]	Activity [4]
5.1	CC(=O)N(O)CCCCCNC(=O)CCC(=O)N(O)CCCCCNC(=O)CCC(=O)N(O)CCCCCN [DEFEROXAMINE]	–	–	–
–	CC[C@H](C)[C@@H]1NC(=O)[C@@H]2CCCN2C(=O)[C@H](Cc2ccccc2)NC(=O)c2nc(oc2C)[C@H](C)NC(=O)c2nc(oc2C)[C@H](Cc2ccccc2)NC(=O)CNC(=O)[C@@H]2CCCN2C(=O)[C@@H]2CCCN2C(=O)[C@H](C)NC(=O)c2coc1n2 (cyclo(APPG[X1][X2]FP[X3]))	1	0.58	inactive
